Measurements published in PMC8037784 (Cancers, 2021).
Several values for one entry are separate records, joined by “and”; a condition that tells them apart may be missing. Equal values may be shown once.

Legend:
[1] = in vivo; design: species or system Sprague-Dawley rats; conditions: Sprague-Dawley, rat, po, 3 mg/kg
Description: The HPLC system consisted of a chromatographic pump (LC−20AT), an online injector (SIL−20C) equipped with a 10 μL sample loop to inject the sample, and an ultraviolet detector (SPD-M20A).
(§1) A freely moving rat model was designed for the current study. The rats were anesthetized and immobilized on a board while undergoing computed tomography to localize the whole liver or a central area measuring 1.5 cm × 1.5 cm for the SBRT technique. For the whole liver field, the cranial margin was set 5 mm from the top of the diaphragm, and the caudal margin was set 5 mm lower than the liver margin. The whole liver was targeted for irradiation. […] Data were collected from six rats per group.
A radiation dose of 2 Gy was considered the daily conventional EBRT dose or the off-target dose around the target that received an ablation RT dose. A dose of 9 Gy was used to simulate SBRT. […] Rats were initially anesthetized with pentobarbital (50 mg/kg, i.p.) and remained anesthetized throughout the experimental period. […]
PK parameters, including the area under the concentration–time curve (AUC), clearance (CL), elimination half-life (t1/2), volume of distribution at steady state (Vss), and mean residence time (MRT), were calculated using the PK calculation software WinNonlin Standard Edition, Version 1.1 (Scientific Consulting, Apex, NC, USA) by a compartmental method.

[2] = Organ distribution of lenvatinib in rats with or without liver RT; type: in vivo, Sprague-Dawley rats; conditions: rat; for concentration at 6 h: Sprague-Dawley, po, 3 mg/kg; for concentration at 6 h / Concentration of lenvatinib in spleen: 6 h after administration
Excerpt: as §1
A radiation dose of 2 Gy was considered the daily conventional EBRT dose or the off-target dose around the target that received an ablation RT dose. A dose of 9 Gy was used to simulate SBRT. […] Rats were initially anesthetized with pentobarbital (50 mg/kg, i.p.) and remained anesthetized throughout the experimental period. After surgery, the rats were placed in an experimental cage and allowed to recover for 1 day.
The brain, liver, heart, spleen, lung, and kidney were collected and weighed. These collected samples were stored at −20 °C until analysis.
The thawed organ samples were homogenized in 50% aqueous acetonitrile (the ratio of sample weight and volume was 1:5), and the homogenate was centrifuged at 13,000× g for 10 min at 4 °C. The supernatant was collected, placed in brown Eppendorf tubes, and stored at −20 °C until analysis. Briefly, each organ sample (50 μL) was combined with 150 μL of IS solution (diethylstilbestrol) for protein precipitation. Finally, 20 μL of filtrate was subjected to HPLC analysis.

[3] = test system: CYP3A4; conditions: cited from earlier work
[4] = RT2Gy concurrent with lenvatinib
[5] = RT9Gy concurrent with lenvatinib

- concentration at 60 min [1]: 940 ng/mL
- concentration at 6 h ([2]; brain, Concentration of lenvatinib in brain, 3 mg/kg p.o., RT2Gy concurrent with lenvatinib): 0 ng/mL
- concentration at 6 h ([2]; brain, Concentration of lenvatinib in brain, 3 mg/kg p.o., RT2Gy followed by lenvatinib): 0 ng/mL
- concentration at 6 h ([2]; brain, Concentration of lenvatinib in brain, 3 mg/kg p.o., RT9Gy concurrent with lenvatinib): 0 ng/mL
- concentration at 6 h ([2]; brain, Concentration of lenvatinib in brain, 3 mg/kg p.o., RT9Gy followed by lenvatinib): 0 ng/mL
- concentration at 6 h ([2]; brain, Concentration of lenvatinib in brain, 3 mg/kg p.o., lenvatinib only): 0 ng/mL
- concentration at 6 h ([2]; heart, Concentration of lenvatinib in heart, 3 mg/kg p.o., RT2Gy concurrent with lenvatinib): 32 ± 40 ng/mL
- concentration at 6 h ([2]; heart, Concentration of lenvatinib in heart, 3 mg/kg p.o., RT2Gy followed by lenvatinib): 74 ± 40 ng/mL
- concentration at 6 h ([2]; heart, Concentration of lenvatinib in heart, 3 mg/kg p.o., RT9Gy concurrent with lenvatinib): 15 ± 40 ng/mL
- concentration at 6 h ([2]; heart, Concentration of lenvatinib in heart, 3 mg/kg p.o., RT9Gy followed by lenvatinib): 78 ± 40 ng/mL
- concentration at 6 h ([2]; heart, Concentration of lenvatinib in heart, 3 mg/kg p.o., lenvatinib only): 50 ± 50 ng/mL
- concentration at 6 h ([2]; kidney, Concentration of lenvatinib in kidney, 3 mg/kg p.o., RT2Gy concurrent with lenvatinib): 113 ± 30 ng/mL
- concentration at 6 h ([2]; kidney, Concentration of lenvatinib in kidney, 3 mg/kg p.o., RT2Gy followed by lenvatinib): 230 ± 50 ng/mL
- concentration at 6 h ([2]; kidney, Concentration of lenvatinib in kidney, 3 mg/kg p.o., RT9Gy concurrent with lenvatinib): 129 ± 50 ng/mL
- concentration at 6 h ([2]; kidney, Concentration of lenvatinib in kidney, 3 mg/kg p.o., RT9Gy followed by lenvatinib): 223 ± 50 ng/mL
- concentration at 6 h ([2]; kidney, Concentration of lenvatinib in kidney, 3 mg/kg p.o., lenvatinib only): 175 ± 50 ng/mL
- concentration at 6 h ([2]; liver, Concentration of lenvatinib in liver, 3 mg/kg p.o., RT2Gy concurrent with lenvatinib): 72 ± 60 ng/mL
- concentration at 6 h ([2]; liver, Concentration of lenvatinib in liver, 3 mg/kg p.o., RT2Gy followed by lenvatinib): 158 ± 90 ng/mL
- concentration at 6 h ([2]; liver, Concentration of lenvatinib in liver, 3 mg/kg p.o., RT9Gy concurrent with lenvatinib): 93 ± 50 ng/mL
- concentration at 6 h ([2]; liver, Concentration of lenvatinib in liver, 3 mg/kg p.o., RT9Gy followed by lenvatinib): 161 ± 70 ng/mL
- concentration at 6 h ([2]; liver, Concentration of lenvatinib in liver, 3 mg/kg p.o., lenvatinib only): 104 ± 50 ng/mL
- concentration at 6 h ([2]; lung, Concentration of lenvatinib in lung, 3 mg/kg p.o., RT2Gy concurrent with lenvatinib): 33 ± 40 ng/mL
- concentration at 6 h ([2]; lung, Concentration of lenvatinib in lung, 3 mg/kg p.o., RT2Gy followed by lenvatinib): 92 ± 30 ng/mL
- concentration at 6 h ([2]; lung, Concentration of lenvatinib in lung, 3 mg/kg p.o., RT9Gy concurrent with lenvatinib): 42 ± 50 ng/mL
- concentration at 6 h ([2]; lung, Concentration of lenvatinib in lung, 3 mg/kg p.o., RT9Gy followed by lenvatinib): 75 ± 30 ng/mL
- concentration at 6 h ([2]; lung, Concentration of lenvatinib in lung, 3 mg/kg p.o., lenvatinib only): 108 ± 40 ng/mL
- concentration at 6 h ([2]; spleen, Concentration of lenvatinib in spleen, 3 mg/kg p.o., RT2Gy followed by lenvatinib): 73 ± 40 ng/mL
- concentration at 6 h ([2]; spleen, Concentration of lenvatinib in spleen, 3 mg/kg p.o., RT9Gy followed by lenvatinib): 60 ± 60 ng/mL
- concentration at 6 h ([2]; spleen, Concentration of lenvatinib in spleen, 3 mg/kg p.o., lenvatinib only): 30 ± 50 ng/mL
- Concentration of lenvatinib in spleen ([2]; 3 mg/kg p.o., RT2Gy concurrent with lenvatinib): 0 ng/mL
- Concentration of lenvatinib in spleen ([2]; 3 mg/kg p.o., RT9Gy concurrent with lenvatinib): 0 ng/mL
- Detection of lenvatinib in the brain ([2]; 3 mg/kg p.o., with or without RT): not detected
- Heart concentration decreased compared with the sham group [2, 4]: 36.0%
- Kidney concentration decreased compared with the sham group [2, 4]: 35.4%
- Liver concentration decreased compared with the sham group [2, 4]: 30.8%
- Lung concentration decreased compared with the sham group [2, 4]: 69.4%
- Spleen concentration decreased compared with the sham group [2, 4]: 100.0%
- Heart concentration increased compared with the sham group ([2]; RT2Gy followed by lenvatinib): 48.0%
- Kidney concentration increased compared with the sham group ([2]; RT2Gy followed by lenvatinib): 31.4%
- Liver concentration increased compared with the sham group ([2]; RT2Gy followed by lenvatinib): 51.9%
- Lung concentration decreased compared with the sham group ([2]; RT2Gy followed by lenvatinib): 15% and 14.8%
- Spleen concentration increased compared with the sham group ([2]; RT2Gy followed by lenvatinib): 143.3%
- Heart concentration decreased compared with the sham group [2, 5]: 70.0%
- Kidney concentration decreased compared with the sham group [2, 5]: 26.2%
- Liver concentration decreased compared with the sham group [2, 5]: 10.6%
- Lung concentration decreased compared with the sham group [2, 5]: 61.1%
- Spleen concentration decreased compared with the sham group [2, 5]: 100%
- Heart concentration increased compared with the sham group ([2]; RT9Gy followed by lenvatinib): 56.0%
- Kidney concentration increased compared with the sham group ([2]; RT9Gy followed by lenvatinib): 27.4%
- Liver concentration increased compared with the sham group ([2]; RT9Gy followed by lenvatinib): 54.8%
- Lung concentration decreased compared with the sham group ([2]; RT9Gy followed by lenvatinib): 31% and 30.6%
- Spleen concentration increased compared with the sham group ([2]; RT9Gy followed by lenvatinib): 100%
- Increase of concentration in the heart ([2]; sequential RT regimen): 50%
- Increase of concentration in the kidneys ([2]; sequential RT regimen): 30%
- Increase of concentration in the liver ([2]; sequential RT regimen): 50%
- Increase of concentration in the spleen ([2]; sequential regimen): more than 100%
Compound: COc1cc2nccc(Oc3ccc(NC(=O)NC4CC4)c(Cl)c3)c2cc1C(N)=O [lenvatinib, Lenvatinib]
- Oxidative metabolism [3]: mediated primarily by CYP3A4
